The source of these data is paper PMC9609767, “Radiosynthesis and Preclinical Evaluation of an ^18F-Labeled Triazolopyridopyrazine-Based Inhibitor for Neuroimaging of the Phosphodiesterase 2A (PDE2A)” (Pharmaceuticals, 2022).

Molecules are shown by their SMILES. Several values for one entry are separate records, joined by “and”; a condition that tells them apart may be missing. Equal values may be shown once. Read-outs that look alike come from different tables or passages of the source.

The subject of one assay is bovine PDE2A. Also noted: method as in PMID 15555642. The conditions noted are these: cited from earlier work.
In a further assay the test system is human PDE2A. Also noted: method as in PMID 15555642. Conditions: cited from earlier work.
The next assay has as its target T1, rat PDE2A (Rattus norvegicus, UniProt Q01062).
T1 construct: Frozen sagittal 12 µm brain sections obtained from female SPRD and male Wistar-Han rats; from tissue; host or cells: rat brain cryosections (female SPRD and male Wistar-Han rats)
T1 sequence (Q01062 1-928): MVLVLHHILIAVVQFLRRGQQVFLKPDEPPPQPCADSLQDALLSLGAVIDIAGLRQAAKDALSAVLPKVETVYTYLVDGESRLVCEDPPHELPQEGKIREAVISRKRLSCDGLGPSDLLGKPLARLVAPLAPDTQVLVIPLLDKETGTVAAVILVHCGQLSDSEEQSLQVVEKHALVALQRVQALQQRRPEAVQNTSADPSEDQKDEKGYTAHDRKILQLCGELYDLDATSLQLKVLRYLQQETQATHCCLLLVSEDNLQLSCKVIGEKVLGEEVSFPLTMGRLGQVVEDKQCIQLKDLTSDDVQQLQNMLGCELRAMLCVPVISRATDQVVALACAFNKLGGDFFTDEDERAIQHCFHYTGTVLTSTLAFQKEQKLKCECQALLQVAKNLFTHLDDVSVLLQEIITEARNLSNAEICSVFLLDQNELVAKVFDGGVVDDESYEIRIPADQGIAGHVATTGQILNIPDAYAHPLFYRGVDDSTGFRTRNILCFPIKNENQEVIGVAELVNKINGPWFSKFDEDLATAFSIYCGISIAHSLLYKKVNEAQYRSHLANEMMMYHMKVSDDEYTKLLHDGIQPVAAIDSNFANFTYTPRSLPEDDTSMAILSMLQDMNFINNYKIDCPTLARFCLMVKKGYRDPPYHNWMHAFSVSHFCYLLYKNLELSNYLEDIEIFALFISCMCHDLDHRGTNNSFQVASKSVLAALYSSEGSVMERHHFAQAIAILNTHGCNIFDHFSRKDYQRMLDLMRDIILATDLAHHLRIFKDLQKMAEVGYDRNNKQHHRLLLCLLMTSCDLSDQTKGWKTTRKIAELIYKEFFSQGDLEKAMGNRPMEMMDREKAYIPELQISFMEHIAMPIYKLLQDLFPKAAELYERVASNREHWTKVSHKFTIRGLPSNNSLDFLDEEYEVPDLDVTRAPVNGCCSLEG
The experiment in a line: In vitro autoradiography with rat brain cryosections. The class given is binding. Conditions: co-incubation with 1 µM inhibitor. How it is done:
Frozen sagittal 12 µm brain sections obtained from female SPRD and male Wistar-Han rats (10–12 weeks old) were thawed, dried in a stream of cold air, and pre-incubated for 15 min with incubation buffer (50 mM TRIS-HCl, pH 7.4; supplemented with 1 mM MgCl2, 1 mM CaCl2, 2 mM KCl, and 2 U/mL Adenosine deaminase) at ambient temperature. Afterwards, the buffer was decanted and the cryosections dried again in a stream of cold air before covering with the radioligand in incubation buffer (~0.1 MBq [^18F]11/mL; Am at the time of the incubation ~10 GBq/µmol) for incubation at ambient temperature for 90 min.
The incubation was terminated by pouring off the incubation solution and washing the slides twice with ice-cold buffer (50 mM TRIS-HCl, pH 7.4/4 °C) for 2 min and rinsing by dipping in ice-cold demineralised water. Immediately afterwards, the sections were dried in a stream of cold air and exposed along with appropriate radioactive standards (1 µL of serial dilutions of the radioligand in incubation buffer, pipetted on a microscopic glass slide and air dried) to an ^18F-sensitive image plate for 120 min. Finally, the imaging plate was scanned at the highest possible resolution (pixel size 12.6 µm × 12.6 µm) in a phosphor imager (HD-CR 35; Duerr NDT GmbH, Bietigheim Bissingen, Germany) and the digital image analysed with an image analysis program (Aida Image Analyzer v. 4.26; Elysia-raytest GmbH, Straubenhardt, Germany).
For the determination of the protein concentration, four dried 12 µm cryosections were scraped from the microscopic glass slides, transferred in an Eppendorf tube and solubilised with 200 µL of demineralised water. The protein concentration of this solution was determined by a commercial assay (Pierce™ BCA Protein Assay Kit, Thermo Fisher Scientific, Schwerte, Germany). The area of the cryosections was determined during the analysis of the digitized autoradiographic images, and the volume was calculated by multiplying the area with the thickness of the slices. Finally, the protein concentration of the tissue was calculated (37 mg protein/g wet weight).

In assay [1] the test system is PDE10A. Also on record: method as in earlier work. Conditions: read-out: IC50, PDE10A (PDE10A1); cited from earlier work.
In assay [2] the test system is PDE2A. Also noted: method as in earlier work. Conditions: cited from earlier work.
Assay [3] relates to PDE10A. Briefly: Inhibitory potency against PDE10A. The format is biochemical. Conditions: PDE2A vs. PDE10A.
Assay [4] deals with PDE2A. Conditions: cited from earlier work.

On to `COc1ccc(Cc2nn3c([C@@H](CCCc4ccccc4)[C@@H](C)O)nc(C)c3c(=O)[nH]2)cc1OC` [BAY60-7550], for which the figures for the IC50 in the assay on bovine PDE2A and in the assay with human PDE2A were 2 nM and 4.7 nM, respectively. In addition, the “blocking of [18F]11 binding in rat brain sections” value at rat PDE2A is listed as “completely blocked”.
For `CCCC(O)c1ccc(F)c(-c2nnc3c(C)nc4ccc(C5CC5)nc4n23)c1` (centres unmarked) [Compound 11, 1-[3-(2-Cyclopropyl-6-methylpyrido[3,2-e][1,2,4]triazolo[4,3-a]pyrazin-9-yl)-4-fluorophenyl]butan-1-ol], the IC50 in the assay on PDE10A [1] was ~2000 nM and 1910 nM; in the assay with PDE2A [2], 1.99 nM. In addition, the “selectivity vs. PDE10A” value in the assay with PDE10A [3] was roughly 1000 fold.
Take `Cc1nc(-c2cnn(C)c2-c2ccc(C(F)(F)F)cn2)c2c(N3CCC3)ncnn12` [PF-05180999, reference compound]: the IC50 with PDE2A [4] is 1.6 nM. On rat PDE2A, the “blocking of [18F]11 binding in rat brain sections” value is “completely blocked”.

What is called IC50 is the concentration needed to halve the response being measured.
